Experimental findings from article PMC8550792, “Evolution of kinase polypharmacology across HSP90 drug discovery” (Cell Chemical Biology, 2021) are described below.

Assay in all cases: biochemical
Common to all, as to format: biochemical

The target in assay [1] is T1, 382 unique human kinases (Homo sapiens, UniProt P07949, V804L).
T1 construct: purchased Reaction Biology (HotSpot contract assay)
The note with it: RET (V804L), 10 uM; for remaining activity at 10 µM: read-out: % Enzyme Activity (relative to DMSO controls).

Assay [2] addresses T2, 382 unique human kinases (Homo sapiens, UniProt P36507).
T2 construct: purchased Reaction Biology (HotSpot contract assay)
The note with it: MEK2, 10 uM; for remaining activity at 10 µM: read-out: % Enzyme Activity (relative to DMSO controls).

Assay [3] deals with T3, 382 unique human kinases (Homo sapiens, UniProt Q9UF33).
T3 construct: purchased Reaction Biology (HotSpot contract assay)
T3 sequence (Q9UF33 23-1036): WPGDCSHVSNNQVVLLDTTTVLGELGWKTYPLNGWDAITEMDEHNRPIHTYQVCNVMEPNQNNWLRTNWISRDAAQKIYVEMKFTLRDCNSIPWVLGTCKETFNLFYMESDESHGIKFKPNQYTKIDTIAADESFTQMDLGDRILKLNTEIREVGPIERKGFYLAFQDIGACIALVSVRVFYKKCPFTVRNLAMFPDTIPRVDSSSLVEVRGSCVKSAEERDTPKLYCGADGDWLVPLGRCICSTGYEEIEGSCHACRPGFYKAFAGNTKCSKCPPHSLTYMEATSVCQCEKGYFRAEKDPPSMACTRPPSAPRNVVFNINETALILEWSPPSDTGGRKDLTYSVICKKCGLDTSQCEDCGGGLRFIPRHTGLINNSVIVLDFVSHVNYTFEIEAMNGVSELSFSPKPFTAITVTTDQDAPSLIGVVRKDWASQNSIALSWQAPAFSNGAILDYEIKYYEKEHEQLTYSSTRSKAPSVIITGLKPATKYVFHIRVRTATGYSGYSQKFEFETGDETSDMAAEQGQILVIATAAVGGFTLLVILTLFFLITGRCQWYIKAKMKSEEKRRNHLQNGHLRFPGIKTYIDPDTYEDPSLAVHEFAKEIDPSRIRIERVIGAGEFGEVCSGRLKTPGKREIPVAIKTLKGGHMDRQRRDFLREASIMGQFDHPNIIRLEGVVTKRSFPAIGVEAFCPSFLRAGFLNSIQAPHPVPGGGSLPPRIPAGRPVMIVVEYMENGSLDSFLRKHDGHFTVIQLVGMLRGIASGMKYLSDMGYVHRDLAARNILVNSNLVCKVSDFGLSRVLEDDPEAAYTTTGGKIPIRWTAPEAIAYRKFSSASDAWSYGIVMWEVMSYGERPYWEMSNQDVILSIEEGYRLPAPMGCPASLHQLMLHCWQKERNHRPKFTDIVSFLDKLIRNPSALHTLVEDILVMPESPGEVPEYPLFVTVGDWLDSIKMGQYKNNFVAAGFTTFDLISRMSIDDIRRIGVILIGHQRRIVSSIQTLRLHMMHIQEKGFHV
The note with it: kinase EPHA6, compound 10 uM; for remaining activity at 10 µM: read-out: % Enzyme Activity (relative to DMSO controls).

Assay [4] addresses T4, 382 unique human kinases (Homo sapiens, UniProt Q9P286).
T4 construct: purchased Reaction Biology (HotSpot contract assay)
The note with it: PAK5, compound at 10 uM, duplicate values; for remaining activity at 10 µM: read-out: % Enzyme Activity (relative to DMSO controls).

Assay [5] addresses T5, 382 unique human kinases (Homo sapiens, UniProt P10721, D820Y).
T5 construct: purchased Reaction Biology (HotSpot contract assay)
Particulars: c-Kit (D820Y), 10 uM; for remaining activity at 10 µM: read-out: % Enzyme Activity (relative to DMSO controls).

In assay [6] the target is T6, 382 unique human kinases (Homo sapiens, UniProt P51813).
T6 construct: purchased Reaction Biology (HotSpot contract assay)
T6 sequence (P51813 1-675): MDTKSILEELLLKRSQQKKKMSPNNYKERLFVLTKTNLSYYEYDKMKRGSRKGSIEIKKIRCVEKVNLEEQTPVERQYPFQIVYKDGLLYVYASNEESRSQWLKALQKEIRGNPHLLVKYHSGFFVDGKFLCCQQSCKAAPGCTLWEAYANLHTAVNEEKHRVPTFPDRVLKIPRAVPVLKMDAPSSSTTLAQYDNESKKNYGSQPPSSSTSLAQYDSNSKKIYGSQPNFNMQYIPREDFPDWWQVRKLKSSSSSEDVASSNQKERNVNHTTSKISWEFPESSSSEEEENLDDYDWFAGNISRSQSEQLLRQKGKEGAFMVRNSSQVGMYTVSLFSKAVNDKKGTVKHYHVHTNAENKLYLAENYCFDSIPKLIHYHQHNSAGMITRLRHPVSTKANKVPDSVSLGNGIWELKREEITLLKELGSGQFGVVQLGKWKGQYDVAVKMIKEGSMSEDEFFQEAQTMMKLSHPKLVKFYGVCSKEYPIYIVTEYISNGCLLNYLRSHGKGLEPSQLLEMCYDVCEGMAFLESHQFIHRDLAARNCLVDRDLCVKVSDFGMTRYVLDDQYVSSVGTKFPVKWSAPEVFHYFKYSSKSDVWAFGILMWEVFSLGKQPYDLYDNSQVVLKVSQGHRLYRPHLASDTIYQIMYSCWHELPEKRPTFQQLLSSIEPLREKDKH
Particulars: BMX/ETK, [ATP] 50 µM, compound 10 uM; for remaining activity at 10 µM: read-out: % Enzyme Activity (relative to DMSO controls).

In assay [7] the target is T7, 382 unique human kinases (Homo sapiens, UniProt P08581, Y1230C).
T7 construct: purchased Reaction Biology (HotSpot contract assay)
Particulars: c-MET (Y1230C), 10 uM; for remaining activity at 10 µM: read-out: % Enzyme Activity (relative to DMSO controls).

T4 sequence (Q9P286 whole entry): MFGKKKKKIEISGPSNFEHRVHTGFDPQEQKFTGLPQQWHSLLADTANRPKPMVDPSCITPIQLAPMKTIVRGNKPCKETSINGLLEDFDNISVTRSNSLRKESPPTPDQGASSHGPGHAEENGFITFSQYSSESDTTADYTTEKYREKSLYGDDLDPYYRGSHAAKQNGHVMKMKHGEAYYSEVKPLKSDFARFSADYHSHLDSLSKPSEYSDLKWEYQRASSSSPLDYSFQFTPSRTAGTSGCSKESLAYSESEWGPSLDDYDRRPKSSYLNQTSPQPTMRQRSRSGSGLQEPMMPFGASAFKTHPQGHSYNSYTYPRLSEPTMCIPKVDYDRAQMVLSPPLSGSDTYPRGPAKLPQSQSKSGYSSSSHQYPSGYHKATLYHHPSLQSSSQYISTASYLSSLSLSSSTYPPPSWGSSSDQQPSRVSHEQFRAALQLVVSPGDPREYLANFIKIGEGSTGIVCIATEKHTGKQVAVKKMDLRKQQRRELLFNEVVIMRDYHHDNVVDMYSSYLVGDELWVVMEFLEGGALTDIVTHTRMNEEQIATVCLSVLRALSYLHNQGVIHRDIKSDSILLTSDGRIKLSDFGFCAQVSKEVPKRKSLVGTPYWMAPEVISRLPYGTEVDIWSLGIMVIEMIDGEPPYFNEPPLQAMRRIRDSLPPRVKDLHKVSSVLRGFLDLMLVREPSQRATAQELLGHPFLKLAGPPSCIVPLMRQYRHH
T2 sequence (P36507 whole entry): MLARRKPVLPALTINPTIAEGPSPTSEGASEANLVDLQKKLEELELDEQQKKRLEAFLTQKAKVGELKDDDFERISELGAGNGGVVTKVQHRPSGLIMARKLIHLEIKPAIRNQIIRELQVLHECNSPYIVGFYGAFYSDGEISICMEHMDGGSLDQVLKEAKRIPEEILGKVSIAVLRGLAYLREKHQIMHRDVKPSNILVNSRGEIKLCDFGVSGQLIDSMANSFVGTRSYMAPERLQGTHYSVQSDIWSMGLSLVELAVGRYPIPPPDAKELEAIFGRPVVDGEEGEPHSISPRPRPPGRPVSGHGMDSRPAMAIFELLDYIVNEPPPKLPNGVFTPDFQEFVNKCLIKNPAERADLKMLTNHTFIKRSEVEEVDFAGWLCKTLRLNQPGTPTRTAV
T1 sequence (P07949 29-1114 V804L): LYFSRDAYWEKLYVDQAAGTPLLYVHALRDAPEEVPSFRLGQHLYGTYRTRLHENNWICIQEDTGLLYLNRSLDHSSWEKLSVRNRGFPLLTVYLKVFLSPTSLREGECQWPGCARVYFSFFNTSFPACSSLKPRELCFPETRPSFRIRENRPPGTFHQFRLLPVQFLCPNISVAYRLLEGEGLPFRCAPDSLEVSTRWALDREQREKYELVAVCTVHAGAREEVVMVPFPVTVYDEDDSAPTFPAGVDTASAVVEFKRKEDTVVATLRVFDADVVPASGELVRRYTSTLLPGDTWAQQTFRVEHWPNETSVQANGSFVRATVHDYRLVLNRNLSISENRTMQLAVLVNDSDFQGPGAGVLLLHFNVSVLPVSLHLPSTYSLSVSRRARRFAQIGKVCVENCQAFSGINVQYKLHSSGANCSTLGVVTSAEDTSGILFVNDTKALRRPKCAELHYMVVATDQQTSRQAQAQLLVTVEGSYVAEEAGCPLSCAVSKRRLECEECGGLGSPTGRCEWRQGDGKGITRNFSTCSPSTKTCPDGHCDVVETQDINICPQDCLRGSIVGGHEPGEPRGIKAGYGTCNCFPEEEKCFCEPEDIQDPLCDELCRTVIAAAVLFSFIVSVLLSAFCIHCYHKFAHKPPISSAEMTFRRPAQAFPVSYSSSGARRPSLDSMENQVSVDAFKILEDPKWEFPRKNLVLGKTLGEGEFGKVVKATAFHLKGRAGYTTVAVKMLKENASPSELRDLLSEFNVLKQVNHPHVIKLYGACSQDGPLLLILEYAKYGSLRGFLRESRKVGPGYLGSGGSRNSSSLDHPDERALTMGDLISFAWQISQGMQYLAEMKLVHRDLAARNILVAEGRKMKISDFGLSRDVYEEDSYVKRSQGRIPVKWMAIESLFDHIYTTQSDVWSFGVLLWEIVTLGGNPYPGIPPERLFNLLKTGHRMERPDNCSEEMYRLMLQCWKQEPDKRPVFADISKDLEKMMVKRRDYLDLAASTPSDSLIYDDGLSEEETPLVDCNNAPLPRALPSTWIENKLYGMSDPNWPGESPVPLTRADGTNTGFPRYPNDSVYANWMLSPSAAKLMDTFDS
T5 sequence (P10721 26-976 D820Y): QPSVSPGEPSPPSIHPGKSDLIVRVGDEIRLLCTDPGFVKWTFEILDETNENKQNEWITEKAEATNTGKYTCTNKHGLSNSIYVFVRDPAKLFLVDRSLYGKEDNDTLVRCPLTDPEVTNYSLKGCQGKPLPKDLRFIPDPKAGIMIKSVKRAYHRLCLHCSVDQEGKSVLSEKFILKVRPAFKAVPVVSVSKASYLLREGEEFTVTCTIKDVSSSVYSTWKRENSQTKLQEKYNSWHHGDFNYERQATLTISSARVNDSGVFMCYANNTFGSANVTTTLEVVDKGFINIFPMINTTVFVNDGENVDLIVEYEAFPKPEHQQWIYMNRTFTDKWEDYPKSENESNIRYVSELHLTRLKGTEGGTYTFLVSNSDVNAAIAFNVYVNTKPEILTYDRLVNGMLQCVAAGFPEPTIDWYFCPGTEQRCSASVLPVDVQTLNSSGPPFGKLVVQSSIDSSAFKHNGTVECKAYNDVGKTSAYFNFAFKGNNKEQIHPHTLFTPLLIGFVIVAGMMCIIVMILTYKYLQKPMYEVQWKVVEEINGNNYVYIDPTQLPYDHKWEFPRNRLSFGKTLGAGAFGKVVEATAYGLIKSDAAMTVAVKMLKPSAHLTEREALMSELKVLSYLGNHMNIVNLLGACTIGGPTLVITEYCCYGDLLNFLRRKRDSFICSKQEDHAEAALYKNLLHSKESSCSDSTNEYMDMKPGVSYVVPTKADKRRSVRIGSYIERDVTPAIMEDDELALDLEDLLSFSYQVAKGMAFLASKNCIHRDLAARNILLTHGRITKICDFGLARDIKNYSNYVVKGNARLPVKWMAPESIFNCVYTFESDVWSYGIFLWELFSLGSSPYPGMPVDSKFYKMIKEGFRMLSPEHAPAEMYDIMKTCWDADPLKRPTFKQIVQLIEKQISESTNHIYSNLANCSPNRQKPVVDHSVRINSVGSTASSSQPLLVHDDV

Turning to `CC(C)c1cc(-c2n[nH]c(=O)n2-c2ccc3c(ccn3C)c2)c(O)cc1O` [Ganetespib (STA9090)], the remaining activity at 10 µM in assay [1] is 78.5%; in assay [2] it was 61.1%; in assay [3], 91%; in assay [4], 119%; in assay [5], 62.7%.

For `CC(C)c1cc(-c2n[nH]c(=O)n2-c2ccc3c(ccn3C)c2)c(O)cc1O` [Ganetespib], the remaining activity at 10 µM amounted to 46.7% in assay [6] and 97% in assay [7].

`CCNC(=O)c1noc(-c2cc(C(C)C)c(O)cc2O)c1-c1ccc(CN2CCOCC2)cc1` [Luminespib (AUY-922)]: the “% Enzyme Activity (relative to DMSO controls)” value in assay [1] came to 104.44%; in assay [2], 98.43%; in assay [3], 91.89%; in assay [4], 107.77%; in assay [5], 70.30%. The remaining activity at 10 µM in assay [1] was 106%; in assay [2], 99.5%; in assay [3], 92%; in assay [4], 108%; in assay [5], 71.4%.

Take `CCNC(=O)c1noc(-c2cc(C(C)C)c(O)cc2O)c1-c1ccc(CN2CCOCC2)cc1` [Luminespib]: in assay [6], the “% Enzyme Activity (relative to DMSO controls)” value stood at 102.71% and the remaining activity at 10 µM is 103%. Further, in assay [7], the “% Enzyme Activity (relative to DMSO controls)” value turned out to be 102.31% and the remaining activity at 10 µM is 103%.
